Measured values: ChEMBL document CHEMBL1201862, “PubChem BioAssay data set” (2004)
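How tested: cells in 96-well plates exposed to compound for 48 hours at five concentrations. GI50: concentration for 50% inhibition of growth.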 Activity calls are given as the source filed them. No stated cut-off is given here; in the data, active = GI50 up to about 1.1 µM and inactive = higher.

Tests used:
Assay in all cases: NCI anticancer screen, dose series, 48 h
786-0 = tested on: 786-0
A549 = tested on: A549
ACHN = tested on: ACHN
BT-549 = tested on: BT-549
CAKI-1 = tested on: CAKI-1
CCRF-CEM = tested on: CCRF-CEM
COLO 205 = tested on: COLO 205
DU-145 = tested on: DU-145
EKVX = tested on: EKVX
HCC 2998 = tested on: HCC 2998
HCT-116 = tested on: HCT-116
HCT-15 = tested on: HCT-15
HL-60 = tested on: HL-60
HOP-62 = tested on: HOP-62
HOP-92 = tested on: HOP-92
HT-29 = tested on: HT-29
Hs-578T = tested on: Hs-578T
IGROV-1 = tested on: IGROV-1
K562 = tested on: K562
KM12 = tested on: KM12
LOX IMVI = tested on: LOX IMVI
M14 = tested on: M14
MCF7 = tested on: MCF7
MDA-MB-231 = tested on: MDA-MB-231
MDA-MB-435 = tested on: MDA-MB-435
MDA-N = tested on: MDA-N
MOLT-4 = tested on: MOLT-4
Malme-3M = tested on: Malme-3M
NCI-H226 = tested on: NCI-H226
NCI-H23 = tested on: NCI-H23
NCI-H522 = tested on: NCI-H522
NCI/ADR-RES = tested on: NCI/ADR-RES
OVCAR-3 = tested on: OVCAR-3
OVCAR-4 = tested on: OVCAR-4
OVCAR-5 = tested on: OVCAR-5
OVCAR-8 = tested on: OVCAR-8
PC-3 = tested on: PC-3
RPMI-8226 = tested on: RPMI-8226
RXF 393 = tested on: RXF 393
SF-268 = tested on: SF-268
SF-295 = tested on: SF-295
SF-539 = tested on: SF-539
SK-MEL-28 = tested on: SK-MEL-28
SK-MEL-2 = tested on: SK-MEL-2
SK-MEL-5 = tested on: SK-MEL-5
SK-OV-3 = tested on: SK-OV-3
SN12C = tested on: SN12C
SNB-19 = tested on: SNB-19
SNB-75 = tested on: SNB-75
SR = tested on: SR
SW-620 = tested on: SW-620
T47D = tested on: T47D
TK-10 = tested on: TK-10
U-251 = tested on: U-251
UACC-257 = tested on: UACC-257
UACC-62 = tested on: UACC-62
UO-31 = tested on: UO-31
NCI-H460 = tested on: NCI-H460

## CC1(c2nc3ccccc3[nH]2)CCC(C(=O)O)C(C)(C)O1 (configuration not stated)
786-0
  GI50: > 100 µM (inactive)
A549
  GI50: > 100 µM (inactive)
ACHN
  GI50: > 100 µM (inactive)
BT-549
  GI50: > 100 µM (inactive)
CAKI-1
  GI50: > 100 µM (inactive)
CCRF-CEM
  GI50: > 100 µM (inactive)
COLO 205
  GI50: > 100 µM (inactive)
DU-145
  GI50: > 100 µM (inactive)
EKVX
  GI50: > 100 µM (inactive)
HCC 2998
  GI50: > 100 µM (inactive)
HCT-116
  GI50: > 100 µM (inactive)
HCT-15
  GI50: > 100 µM
HL-60
  GI50: > 100 µM (inactive)
HOP-62
  GI50: > 100 µM (inactive)
HOP-92
  GI50: > 100 µM (inactive)
HT-29
  GI50: > 100 µM (inactive)
Hs-578T
  GI50: > 100 µM (inactive)
IGROV-1
  GI50: > 100 µM (inactive)
K562
  GI50: > 100 µM (inactive)
KM12
  GI50: 26.5 µM (inactive)
LOX IMVI
  GI50: > 100 µM (inactive)
M14
  GI50: > 100 µM (inactive)
MCF7
  GI50: > 100 µM (inactive)
MDA-MB-231
  GI50: > 100 µM (inactive)
MDA-MB-435
  GI50: > 100 µM (inactive)
MDA-N
  GI50: > 100 µM (inactive)
MOLT-4
  GI50: > 100 µM (inactive)
Malme-3M
  GI50: > 100 µM (inactive)
NCI-H226
  GI50: > 100 µM (inactive)
NCI-H23
  GI50: > 100 µM (inactive)
NCI-H522
  GI50: > 100 µM (inactive)
NCI/ADR-RES
  GI50: > 100 µM (inactive)
OVCAR-3
  GI50: > 100 µM (inactive)
OVCAR-4
  GI50: > 100 µM (inactive)
OVCAR-5
  GI50: > 100 µM (inactive)
OVCAR-8
  GI50: > 100 µM (inactive)
PC-3
  GI50: > 100 µM (inactive)
RPMI-8226
  GI50: > 100 µM (inactive)
RXF 393
  GI50: > 100 µM (inactive)
SF-268
  GI50: > 100 µM (inactive)
SF-295
  GI50: > 100 µM (inactive)
SF-539
  GI50: > 100 µM (inactive)
SK-MEL-28
  GI50: > 100 µM (inactive)
SK-MEL-2
  GI50: > 100 µM (inactive)
SK-MEL-5
  GI50: > 100 µM (inactive)
SK-OV-3
  GI50: > 100 µM (inactive)
SN12C
  GI50: > 100 µM (inactive)
SNB-19
  GI50: > 100 µM (inactive)
SNB-75
  GI50: 39.8 µM (inactive)
SR
  GI50: > 100 µM (inactive)
SW-620
  GI50: > 100 µM (inactive)
T47D
  GI50: > 100 µM (inactive)
TK-10
  GI50: > 100 µM (inactive)
U-251
  GI50: > 100 µM (inactive)
UACC-257
  GI50: > 100 µM (inactive)
UACC-62
  GI50: > 100 µM (inactive)
UO-31
  GI50: > 100 µM (inactive)

## N#Cc1c(NC(=S)NC(=O)c2ccccc2)nc2c(c1-c1ccccc1)CCC2
A549
  GI50: > 100 µM (inactive)
ACHN
  GI50: > 100 µM (inactive)
BT-549
  GI50: > 100 µM (inactive)
CAKI-1
  GI50: > 100 µM (inactive)
CCRF-CEM
  GI50: > 100 µM (inactive)
COLO 205
  GI50: > 100 µM (inactive)
DU-145
  GI50: > 100 µM (inactive)
EKVX
  GI50: 24.5 µM (inactive)
HCT-116
  GI50: > 100 µM (inactive)
HCT-15
  GI50: > 100 µM
HL-60
  GI50: > 100 µM (inactive)
HOP-62
  GI50: > 100 µM (inactive)
HT-29
  GI50: > 100 µM (inactive)
Hs-578T
  GI50: 39.8 µM (inactive)
IGROV-1
  GI50: > 100 µM (inactive)
K562
  GI50: > 100 µM (inactive)
KM12
  GI50: > 100 µM (inactive)
LOX IMVI
  GI50: > 100 µM (inactive)
M14
  GI50: > 100 µM (inactive)
MCF7
  GI50: > 10 µM (inactive)
MDA-MB-231
  GI50: 43.9 µM (inactive)
MDA-MB-435
  GI50: > 100 µM (inactive)
MDA-N
  GI50: > 100 µM (inactive)
MOLT-4
  GI50: 58.1 µM (inactive)
Malme-3M
  GI50: 78.7 µM (inactive)
NCI-H23
  GI50: > 100 µM (inactive)
NCI-H460
  GI50: > 100 µM (inactive)
NCI/ADR-RES
  GI50: > 100 µM (inactive)
OVCAR-3
  GI50: > 100 µM (inactive)
OVCAR-4
  GI50: > 100 µM (inactive)
OVCAR-5
  GI50: > 100 µM (inactive)
OVCAR-8
  GI50: 67 µM (inactive)
PC-3
  GI50: > 100 µM (inactive)
RPMI-8226
  GI50: > 100 µM (inactive)
SF-268
  GI50: > 100 µM (inactive)
SF-295
  GI50: 91.2 µM (inactive)
SF-539
  GI50: > 100 µM (inactive)
SK-MEL-5
  GI50: 73.3 µM (inactive)
SK-OV-3
  GI50: > 100 µM (inactive)
SN12C
  GI50: 78.2 µM (inactive)
SNB-19
  GI50: > 100 µM (inactive)
SNB-75
  GI50: 22.7 µM (inactive)
SR
  GI50: > 100 µM (inactive)
SW-620
  GI50: > 100 µM (inactive)
T47D
  GI50: 25.5 µM (inactive)
TK-10
  GI50: 91 µM (inactive)
U-251
  GI50: > 100 µM (inactive)
UACC-257
  GI50: > 100 µM (inactive)
UACC-62
  GI50: > 100 µM (inactive)
UO-31
  GI50: 8.67 µM (inactive)
